Assay results reported in publication PMC5217330, “Impact of colistin plasma levels on the clinical outcome of patients with infections caused by extremely drug-resistant Pseudomonas aeruginosa” (BMC Infectious Diseases, 2017).
Like-named read-outs stand apart in the source and are kept apart here. Where a SMILES comes first, the peptide text is derived from it.

What was measured:
[1] = Colistin plasma concentration at steady state in patients treated with intravenous CMS (HPLC); format: in vivo, human
Procedure: CMS for injection was used and dosed in millions of IU throughout the study. The drug was administered intravenously in 100 mL of normal saline over 30 min in the commercially available colistimethate formulation for injection (GES GenéricosEspañoles®), with each vial containing 80 mg CMS (equivalent to 1 million IU of CMS and about 30 mg of colistin base activity). As the policy of our hospital, CMS is reserved for the treatment of infections due to bacteria that are resistant to carbapenems and other antipseudomonal antibiotics except colistin and, eventually, aminoglycosides. Dose selection was at the discretion of the responsible clinicians. CMS doses ranged from 1 to 3 million IU every 8 h (3–9 millions IU daily). The following dose adjustments were made according to the package insert’s recommendations in patients with impaired renal function: GFR ≥ 76 mL/min/1.73 m^2, 4–6 million IU daily in three doses; GFR 40 to 75 mL/min/1.73 m^2, 2–3 million IU daily in 2 doses; GFR 25–40 mL/min/1.73 m^2, 1.5–2 million IU daily divided into 1 or 2 doses; and GFR < 25 mL/min/1.73 m^2, 0.6–1 million IU daily every 36 h. No loading-dose was administered to any included patient.
Measurement of the plasma colistin concentration was performed at the fourth day of treatment, when was assumed that the colistin concentrations had reached the steady state. The colistin plasma trough concentrations (Cmin) were measured just before the administration of CMS. The maximum plasma concentrations (Cmax) were obtained 30 min after the end of the CMS infusion (1 h after the start of infusion). A specialized nurse performed extraction of blood. Samples were immediately placed in a portable refrigerator (4 °C) to be processed in a refrigerated centrifuge (4 °C) at the laboratory. Colistin concentrations in the plasma were determined using a validated high-performance liquid chromatography (HPLC) method as reportedby Li et al., with minor modifications as described previously by our group.
Following Couet et al., Cmin was chosen because it is more convenient from a practical view point and because due to the colistin pharmacokinetic behavior, there can be CMS hydrolysis to colistinafter sample extraction resulting in an overestimation of the real in vivo colistin plasma concentration. This phenomenon can be minimized when CMS plasma concentrations are lower what occurs at the end of the dosing interval (when the Cmin is measured). Throughout the present paper, we have used the term “average colistin concentration at steady state (Css)” to refer to the Cmin.

[2] = tested on: colistin-susceptible XDR P. aeruginosa; test: Clinical outcome (clinical cure, 30-day mortality) of patients with XDR P. aeruginosa infections treated with intravenous CMS; format: in vivo, human
Procedure: A prospective observational cohort study was conducted between January 2009 and January 2013 at a 450-bed teaching hospital in Barcelona, Spain. All patients who had microbiologically documented infections due to colistin-susceptible XDR-P.aeruginosa and were administered CMS for at least 72 h, were included in the study. Only microbiologically documented and clinically defined infections caused by colistin-susceptible XDR P. aeruginosa treated with colistin were considered. Acute bronchitis and tracheitis were excluded from the analysis due to the difficulty in differentiating true infection from colonization in patients with chronic obstructive pulmonary disease (COPD).
The primary end point was clinical cure, and the secondary 30-day all-cause mortality.
Clinical cure and failure were defined as resolution and persistence/worsening, respectively, of symptoms and signs of infection.
Thirty-day mortality was defined as death occurring within 30 days of beginning CMS treatment.
Clinical cure was defined as having resolved clinical signs and symptoms and/or no need for additional antibiotic therapy. Clinical failure was defined as an inadequate response to antibiotic therapy, with worsening, new/recurrent signs and symptoms or death.

[3] = in vivo
Procedure: The serum creatinine level and estimated glomerular filtration rate (GFR) were recorded at baseline, at the moment of colistin plasma extraction (day 4), on day 7 and at the EOT. […] The RIFLE criteria (Table 1) estimated with exclusion of the urinary output criterion, were used for the detection and stratification of acute kidney injury (AKI) [22]. AKI during CMS treatment was defined as a 1.5-fold or more increase in serum creatinine and/or a decrease in the GFR of 25% or more. These criteria needed to be fulfilled for at least 2 consecutive measurements 24 h apart during CMS treatment.

Compound: CC[C@H](C)CCCCC(=O)N[C@@H](CCN)C(=O)N[C@H](C(=O)N[C@@H](CCN)C(=O)N[C@H]1CCNC(=O)[C@H]([C@@H](C)O)NC(=O)[C@H](CCN)NC(=O)[C@H](CCN)NC(=O)[C@H](CC(C)C)NC(=O)[C@@H](CC(C)C)NC(=O)[C@H](CCN)NC1=O)[C@@H](C)O [colistin] (HELM PEPTIDE1{[CC[C@H](C)CCCCC(=O)[*:2]].[Dab].T.[Dab].[Dab].[Dab].[dL].L.[Dab].[Dab].T}$PEPTIDE1,PEPTIDE1,5:R3-11:R2$$$V2.0)
- Css/MIC ([1]; all included patients n = 91, mean ± SD, SD): 3.43 ± 2.91
- Cmax ([1]; human, iv, day 4, 30 min after end of 30-min CMS infusion, plasma, HPLC, mean ± SD, SD, read-out: Cmax (maximum plasma concentration)): 1660 ± 1400 ng/mL
- level at 96 h ([1]; human, plasma, iv, day 4, just before administration of CMS, plasma, HPLC, mean ± SD, SD, read-out: Cmin (colistin plasma trough concentration)): 1710 ± 1420 ng/mL
- level at 96 h ([1]; human, plasma, iv, patients who achieved clinical cure, mean (SD), abstract, SD, read-out: Css): 1490 ng/mL
- level at 96 h ([1]; human, plasma, iv, patients who did not achieve clinical cure, mean (SD), p = 0.01, abstract, SD, read-out: Css): 2420 ng/mL
- level at 96 h ([1]; human, plasma, iv, patients who died n = 28, day 4 trough, plasma, HPLC, mean ± SD, P = 0.011 vs survived, read-out: Css): 2100 ng/mL
- level at 96 h ([1]; human, plasma, iv, patients who survived n = 63, day 4 trough, plasma, HPLC, mean ± SD, read-out: Css): 1400 ng/mL
- Css/MIC ([1]; patients who died n = 28, mean ± SD, P = 0.048 vs survived, SD): 4.2 ± 2.7
- Css > 1.25 (mg/L), patients ([1]; patients who survived n = 63): 28 (44.4) n (%)
- Css/MIC ([1]; patients who survived n = 63, mean ± SD, SD): 3.1 ± 3
- Css/MIC ([1]; patients with clinical cure n = 72, mean ± SD, SD): 3.13 ± 2.9
- Css/MIC ([1]; patients with clinical failure n = 19, mean ± SD, P = 0.03 vs cure, SD): 4.61 ± 2.86

Compound: colistimethate sodium [CMS]
- infection-related mortality rate ([2]; 13 patients died due to P. aeruginosa infection, n = 91): 14.3%
- 30-day all-cause mortality rate ([2]; 28 of 91 patients, i.v. CMS): 30.9%
- AKI RIFLE F at the EOT, patients [3]: 11%
- AKI RIFLE F on day 7 of treatment, patients [3]: 2.2%
- AKI RIFLE I at the EOT, patients [3]: 29.7%
- AKI RIFLE I on day 7 of treatment, patients [3]: 9.9%
- AKI RIFLE R at the EOT, patients [3]: 13.2%
- AKI RIFLE R on day 7 of treatment, patients [3]: 20.9%
- CMS dose modified because of AKI, patients [3]: 17.5%
- GFR returned to baseline at the end of follow-up, patients [3]: 35.1%
- Impairment of renal function during CMS treatment at the EOT, patients [3]: 53.8%
- Impairment of renal function during CMS treatment on day 7, patients [3]: 33%
- Patients with AKI at day 7, F (Failure) [3]: 2 (2.2) n (%)
- Patients with AKI at day 7, I (Injury) [3]: 9 (9.9) n (%)
- Patients with AKI at day 7, R (Risk) [3]: 19 (20.9) n (%)
- Patients with AKI at the EOT, F (Failure) [3]: 10 (11) n (%)
- Patients with AKI at the EOT, I (Injury) [3]: 27 (27.7) n (%)
- Patients with AKI at the EOT, R (Risk) [3]: 12 (13.2) n (%)
- persisted with some grade of impairment of renal function at the end of follow-up, patients [3]: 2.1%
